Data taken from ChEMBL document CHEMBL4507280 (2021).

How the values were obtained:
[1] = test system: Tyrosine-protein kinase ABL1 (Homo sapiens), P00519 [T315I]; settings: Compound concentration 1000.0 nM
[2] = molecular target: Activin receptor type-1-like (Homo sapiens) (UniProt P37023); settings: Compound concentration 1000.0 nM
[3] = molecular target: Calcium/calmodulin-dependent protein kinase kinase 2 (Homo sapiens) (UniProt Q96RR4); settings: Compound concentration 1000.0 nM
[4] = molecular target: Cyclin-dependent kinase 11A (Homo sapiens) (UniProt Q9UQ88); settings: Compound concentration 1000.0 nM
[5] = molecular target: Cyclin-dependent kinase 5 (Homo sapiens) (UniProt Q00535); settings: Compound concentration 1000.0 nM
[6] = molecular target: Casein kinase I isoform gamma-1 (Homo sapiens) (UniProt Q9HCP0); settings: Compound concentration 1000.0 nM
Casein kinase I isoform gamma-1 (Homo sapiens), sequence (Q9HCP0 whole entry, looked up, canonical isoform): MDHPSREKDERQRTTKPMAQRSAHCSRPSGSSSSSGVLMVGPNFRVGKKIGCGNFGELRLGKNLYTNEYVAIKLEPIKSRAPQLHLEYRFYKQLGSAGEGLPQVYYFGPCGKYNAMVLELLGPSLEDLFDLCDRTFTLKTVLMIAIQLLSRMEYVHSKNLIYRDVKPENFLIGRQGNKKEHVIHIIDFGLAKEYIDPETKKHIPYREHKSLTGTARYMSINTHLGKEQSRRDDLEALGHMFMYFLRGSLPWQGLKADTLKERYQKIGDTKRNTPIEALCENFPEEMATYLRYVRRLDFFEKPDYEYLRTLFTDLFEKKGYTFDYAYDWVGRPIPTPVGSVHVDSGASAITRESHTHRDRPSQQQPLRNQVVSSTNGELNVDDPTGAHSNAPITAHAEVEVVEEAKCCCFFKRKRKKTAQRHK

[7] = molecular target: Casein kinase II subunit alpha' (Homo sapiens) (UniProt P19784); settings: Compound concentration 1000.0 nM
[8] = test system: Epidermal growth factor receptor (Homo sapiens), P00533 [UNDEFINED MUTATION]; settings: Compound concentration 1000.0 nM
[9] = test system: Epidermal growth factor receptor (Homo sapiens), P00533 [UNDEFINED MUTATION]; settings: Compound concentration 1000.0 nM; remark: listed apart in the source
[10] = test system: Epidermal growth factor receptor (Homo sapiens), P00533 [UNDEFINED MUTATION]; settings: Compound concentration 1000.0 nM; remark: listed apart in the source
[11] = test system: Epidermal growth factor receptor (Homo sapiens), P00533 [L858R,T790M]; settings: Compound concentration 1000.0 nM
[12] = molecular target: Ephrin type-A receptor 3 (Homo sapiens) (UniProt P29320); settings: Compound concentration 1000.0 nM
Ephrin type-A receptor 3 (Homo sapiens), sequence (P29320 whole entry): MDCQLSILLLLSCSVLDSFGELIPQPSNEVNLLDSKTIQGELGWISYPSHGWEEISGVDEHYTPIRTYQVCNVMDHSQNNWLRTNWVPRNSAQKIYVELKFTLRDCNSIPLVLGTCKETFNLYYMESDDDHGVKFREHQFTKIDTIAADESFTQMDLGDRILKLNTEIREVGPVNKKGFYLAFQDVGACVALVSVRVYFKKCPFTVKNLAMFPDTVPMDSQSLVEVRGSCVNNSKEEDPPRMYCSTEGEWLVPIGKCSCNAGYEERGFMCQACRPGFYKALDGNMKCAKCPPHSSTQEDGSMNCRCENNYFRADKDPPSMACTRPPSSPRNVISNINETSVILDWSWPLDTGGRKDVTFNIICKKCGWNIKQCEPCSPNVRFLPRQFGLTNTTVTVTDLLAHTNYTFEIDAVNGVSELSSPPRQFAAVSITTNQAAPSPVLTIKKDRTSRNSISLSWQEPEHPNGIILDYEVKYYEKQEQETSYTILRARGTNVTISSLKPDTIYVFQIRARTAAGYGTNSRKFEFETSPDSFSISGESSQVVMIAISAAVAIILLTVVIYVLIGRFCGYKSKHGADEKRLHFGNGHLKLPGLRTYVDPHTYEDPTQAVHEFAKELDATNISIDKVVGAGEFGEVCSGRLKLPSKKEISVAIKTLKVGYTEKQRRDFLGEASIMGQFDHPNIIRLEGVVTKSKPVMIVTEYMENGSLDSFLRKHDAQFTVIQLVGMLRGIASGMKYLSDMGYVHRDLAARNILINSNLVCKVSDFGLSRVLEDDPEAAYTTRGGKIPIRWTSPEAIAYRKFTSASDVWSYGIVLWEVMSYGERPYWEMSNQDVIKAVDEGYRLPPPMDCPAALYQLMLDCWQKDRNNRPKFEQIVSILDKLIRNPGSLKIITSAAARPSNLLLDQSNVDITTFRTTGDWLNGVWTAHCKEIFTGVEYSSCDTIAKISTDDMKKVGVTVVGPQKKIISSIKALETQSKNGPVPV

[13] = molecular target: Ephrin type-A receptor 8 (Homo sapiens) (UniProt P29322); settings: Compound concentration 1000.0 nM
[14] = molecular target: Tyrosine-protein kinase Fer (Homo sapiens) (UniProt P16591); settings: Compound concentration 1000.0 nM
[15] = test system: Receptor-type tyrosine-protein kinase FLT3 (Homo sapiens), P36888 [D835H]; settings: Compound concentration 1000.0 nM
[16] = molecular target: Rhodopsin kinase GRK1 (Homo sapiens) (UniProt Q15835); settings: Compound concentration 1000.0 nM
[17] = molecular target: G protein-coupled receptor kinase 4 (Homo sapiens) (UniProt P32298); settings: Compound concentration 1000.0 nM
[18] = molecular target: Homeodomain-interacting protein kinase 2 (Homo sapiens) (UniProt Q9H2X6); settings: Compound concentration 1000.0 nM
[19] = molecular target: Homeodomain-interacting protein kinase 4 (Homo sapiens) (UniProt Q8NE63); settings: Compound concentration 1000.0 nM
[20] = molecular target: Interleukin-1 receptor-associated kinase 3 (Homo sapiens) (UniProt Q9Y616); settings: Compound concentration 1000.0 nM
[21] = molecular target: Mast/stem cell growth factor receptor Kit (Homo sapiens) (UniProt P10721); settings: Compound concentration 1000.0 nM
[22] = molecular target: MAP/microtubule affinity-regulating kinase 3 (Homo sapiens) (UniProt P27448); settings: Compound concentration 1000.0 nM
MAP/microtubule affinity-regulating kinase 3 (Homo sapiens), sequence (P27448 whole entry, looked up): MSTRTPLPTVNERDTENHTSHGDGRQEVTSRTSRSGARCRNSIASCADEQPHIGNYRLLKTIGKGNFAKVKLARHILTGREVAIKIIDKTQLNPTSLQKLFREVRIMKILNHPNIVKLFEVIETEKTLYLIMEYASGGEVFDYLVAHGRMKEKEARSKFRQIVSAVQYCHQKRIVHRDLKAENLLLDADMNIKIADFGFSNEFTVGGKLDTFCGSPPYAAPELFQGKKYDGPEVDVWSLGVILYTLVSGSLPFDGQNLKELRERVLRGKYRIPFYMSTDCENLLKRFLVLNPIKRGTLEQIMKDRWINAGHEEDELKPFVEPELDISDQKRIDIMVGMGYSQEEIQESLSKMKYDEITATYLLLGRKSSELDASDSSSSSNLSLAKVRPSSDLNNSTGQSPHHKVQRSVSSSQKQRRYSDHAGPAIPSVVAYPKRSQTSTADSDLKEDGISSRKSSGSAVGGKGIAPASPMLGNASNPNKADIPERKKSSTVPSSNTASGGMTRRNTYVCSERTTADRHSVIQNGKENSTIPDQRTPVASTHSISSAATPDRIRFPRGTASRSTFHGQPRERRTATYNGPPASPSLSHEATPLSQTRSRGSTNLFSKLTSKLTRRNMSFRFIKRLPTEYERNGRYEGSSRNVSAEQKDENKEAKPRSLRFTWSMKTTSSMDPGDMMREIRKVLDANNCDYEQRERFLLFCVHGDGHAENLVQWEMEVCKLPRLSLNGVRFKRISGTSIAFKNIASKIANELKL

[23] = molecular target: Dual specificity mitogen-activated protein kinase kinase 6 (Homo sapiens) (UniProt P52564); settings: Compound concentration 1000.0 nM
[24] = molecular target: Myosin-IIIb (Homo sapiens) (UniProt Q8WXR4); settings: Compound concentration 1000.0 nM
[25] = molecular target: Serine/threonine-protein kinase 38-like (Homo sapiens) (UniProt Q9Y2H1); settings: Compound concentration 1000.0 nM
[26] = molecular target: Serine/threonine-protein kinase Nek5 (Homo sapiens) (UniProt Q6P3R8); settings: Compound concentration 1000.0 nM
[27] = molecular target: Mitogen-activated protein kinase 11 (Homo sapiens) (UniProt Q15759); settings: Compound concentration 1000.0 nM
Mitogen-activated protein kinase 11 (Homo sapiens), sequence (Q15759 whole entry): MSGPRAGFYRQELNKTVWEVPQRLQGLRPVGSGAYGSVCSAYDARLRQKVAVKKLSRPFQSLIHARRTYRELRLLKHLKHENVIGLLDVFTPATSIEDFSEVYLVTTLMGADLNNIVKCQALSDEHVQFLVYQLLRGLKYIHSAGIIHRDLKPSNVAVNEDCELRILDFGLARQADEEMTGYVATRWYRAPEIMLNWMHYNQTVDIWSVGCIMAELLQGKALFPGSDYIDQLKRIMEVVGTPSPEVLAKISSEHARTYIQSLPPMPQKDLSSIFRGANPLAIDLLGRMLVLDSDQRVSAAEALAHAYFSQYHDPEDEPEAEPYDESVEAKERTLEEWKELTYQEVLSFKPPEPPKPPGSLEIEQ

[28] = molecular target: Cyclin-dependent kinase 17 (Homo sapiens) (UniProt Q00537); settings: Compound concentration 1000.0 nM
[29] = molecular target: Platelet-derived growth factor receptor beta (Homo sapiens) (UniProt P09619); settings: Compound concentration 1000.0 nM
[30] = molecular target: Membrane-associated tyrosine- and threonine-specific cdc2-inhibitory kinase (Homo sapiens) (UniProt Q99640); settings: Compound concentration 1000.0 nM
Membrane-associated tyrosine- and threonine-specific cdc2-inhibitory kinase (Homo sapiens), sequence (Q99640 whole entry): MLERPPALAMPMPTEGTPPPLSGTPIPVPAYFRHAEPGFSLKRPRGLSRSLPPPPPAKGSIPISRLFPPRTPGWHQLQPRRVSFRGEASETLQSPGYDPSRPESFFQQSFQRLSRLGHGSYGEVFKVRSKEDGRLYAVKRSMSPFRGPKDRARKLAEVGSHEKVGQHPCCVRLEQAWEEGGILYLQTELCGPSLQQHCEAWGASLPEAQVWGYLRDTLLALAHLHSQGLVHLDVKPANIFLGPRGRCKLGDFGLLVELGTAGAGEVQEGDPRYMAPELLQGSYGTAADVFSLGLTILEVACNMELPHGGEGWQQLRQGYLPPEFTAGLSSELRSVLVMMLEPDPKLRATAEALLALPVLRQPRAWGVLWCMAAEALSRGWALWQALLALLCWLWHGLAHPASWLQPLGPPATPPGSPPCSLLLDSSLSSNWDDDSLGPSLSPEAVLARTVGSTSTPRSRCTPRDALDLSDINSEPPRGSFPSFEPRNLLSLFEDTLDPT

[31] = molecular target: Serine/threonine-protein kinase PLK2 (Homo sapiens) (UniProt Q9NYY3); settings: Compound concentration 1000.0 nM
[32] = molecular target: Serine/threonine-protein kinase D3 (Homo sapiens) (UniProt O94806); settings: Compound concentration 1000.0 nM
[33] = molecular target: Serine/threonine-protein kinase PRP4 homolog (Homo sapiens) (UniProt Q13523); settings: Compound concentration 1000.0 nM
[34] = molecular target: Receptor-interacting serine/threonine-protein kinase 4 (Homo sapiens) (UniProt P57078); settings: Compound concentration 1000.0 nM
[35] = molecular target: Serine/threonine-protein kinase Sgk2 (Homo sapiens) (UniProt Q9HBY8); settings: Compound concentration 1000.0 nM
[36] = molecular target: Serine/threonine-protein kinase Sgk3 (Homo sapiens) (UniProt Q96BR1); settings: Compound concentration 1000.0 nM
[37] = molecular target: Tyrosine-protein kinase receptor Tie-1 (Homo sapiens) (UniProt P35590); settings: Compound concentration 1000.0 nM
[38] = molecular target: Tyrosine-protein kinase TXK (Homo sapiens) (UniProt P42681); settings: Compound concentration 1000.0 nM
[39] = molecular target: Wee1-like protein kinase (Homo sapiens) (UniProt P30291); settings: Compound concentration 1000.0 nM
[40] = molecular target: 5-hydroxytryptamine receptor 2B (Homo sapiens) (UniProt P41595); settings: Compound concentration 10.0 uM
5-hydroxytryptamine receptor 2B (Homo sapiens), sequence (P41595 whole entry): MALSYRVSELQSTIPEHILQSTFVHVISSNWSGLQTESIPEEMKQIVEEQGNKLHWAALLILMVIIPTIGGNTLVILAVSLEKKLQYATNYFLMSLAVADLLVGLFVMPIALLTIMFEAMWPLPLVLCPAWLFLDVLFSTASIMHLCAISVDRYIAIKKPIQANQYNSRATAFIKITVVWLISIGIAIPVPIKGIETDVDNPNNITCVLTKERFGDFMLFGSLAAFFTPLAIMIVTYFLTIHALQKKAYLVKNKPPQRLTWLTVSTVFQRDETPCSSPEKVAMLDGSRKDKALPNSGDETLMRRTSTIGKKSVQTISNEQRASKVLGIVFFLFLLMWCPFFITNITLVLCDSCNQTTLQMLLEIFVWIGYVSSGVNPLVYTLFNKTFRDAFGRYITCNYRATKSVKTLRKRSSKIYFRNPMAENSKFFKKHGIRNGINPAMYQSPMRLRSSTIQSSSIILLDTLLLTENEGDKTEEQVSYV

[41] = molecular target: 5-hydroxytryptamine receptor 2C (Homo sapiens) (UniProt P28335); settings: Compound concentration 10.0 uM
5-hydroxytryptamine receptor 2C (Homo sapiens), sequence (P28335 whole entry): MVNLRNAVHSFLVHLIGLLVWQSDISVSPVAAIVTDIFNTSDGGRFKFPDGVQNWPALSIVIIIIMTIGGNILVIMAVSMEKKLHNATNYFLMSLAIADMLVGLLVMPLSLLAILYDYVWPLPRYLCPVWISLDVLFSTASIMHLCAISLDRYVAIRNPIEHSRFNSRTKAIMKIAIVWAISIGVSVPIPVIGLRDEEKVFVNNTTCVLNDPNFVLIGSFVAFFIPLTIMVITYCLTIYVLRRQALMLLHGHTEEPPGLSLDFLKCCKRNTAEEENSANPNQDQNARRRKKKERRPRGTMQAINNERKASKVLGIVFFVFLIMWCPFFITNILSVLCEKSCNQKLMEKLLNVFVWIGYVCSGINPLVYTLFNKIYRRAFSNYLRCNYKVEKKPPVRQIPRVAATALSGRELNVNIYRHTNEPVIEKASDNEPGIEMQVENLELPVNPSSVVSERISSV

[42] = molecular target: 5-hydroxytryptamine receptor 3A (Homo sapiens) (UniProt P46098); settings: Compound concentration 10.0 uM
5-hydroxytryptamine receptor 3A (Homo sapiens), sequence (P46098 whole entry): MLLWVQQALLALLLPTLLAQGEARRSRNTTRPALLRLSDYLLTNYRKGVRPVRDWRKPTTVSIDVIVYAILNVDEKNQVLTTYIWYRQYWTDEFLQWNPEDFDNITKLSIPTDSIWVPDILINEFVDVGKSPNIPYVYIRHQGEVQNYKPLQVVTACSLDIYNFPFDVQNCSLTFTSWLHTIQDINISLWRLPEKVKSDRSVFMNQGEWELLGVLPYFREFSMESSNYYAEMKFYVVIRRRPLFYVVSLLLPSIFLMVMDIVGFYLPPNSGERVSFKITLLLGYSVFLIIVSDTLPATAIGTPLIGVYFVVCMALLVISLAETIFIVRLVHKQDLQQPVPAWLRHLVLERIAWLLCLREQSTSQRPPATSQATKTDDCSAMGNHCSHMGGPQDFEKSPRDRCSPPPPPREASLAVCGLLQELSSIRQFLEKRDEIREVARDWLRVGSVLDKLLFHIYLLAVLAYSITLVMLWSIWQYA

[43] = molecular target: D(1B) dopamine receptor (Homo sapiens) (UniProt P21918); settings: Compound concentration 10.0 uM
[44] = molecular target: Alpha-2C adrenergic receptor (Homo sapiens) (UniProt P18825); settings: Compound concentration 10.0 uM
Alpha-2C adrenergic receptor (Homo sapiens), sequence (P18825 whole entry): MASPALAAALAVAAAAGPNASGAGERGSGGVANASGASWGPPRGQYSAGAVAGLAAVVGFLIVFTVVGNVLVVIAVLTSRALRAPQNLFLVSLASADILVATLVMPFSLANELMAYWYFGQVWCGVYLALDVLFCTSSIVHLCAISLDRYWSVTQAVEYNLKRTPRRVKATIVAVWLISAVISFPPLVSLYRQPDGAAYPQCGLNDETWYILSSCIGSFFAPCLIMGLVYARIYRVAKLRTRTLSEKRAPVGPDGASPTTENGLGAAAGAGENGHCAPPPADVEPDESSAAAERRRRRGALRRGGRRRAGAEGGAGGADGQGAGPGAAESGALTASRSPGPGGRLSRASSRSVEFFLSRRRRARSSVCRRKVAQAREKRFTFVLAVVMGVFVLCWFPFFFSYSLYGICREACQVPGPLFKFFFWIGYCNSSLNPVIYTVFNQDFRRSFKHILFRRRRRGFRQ

[45] = molecular target: Sigma intracellular receptor 2 (Homo sapiens, UniProt Q5BJF2); settings: Compound concentration 10.0 uM

CCC(=O)N[C@H]1CC[C@@H](C(=O)N(C)c2ccc(-c3nc4ccccc4o3)cc2)C1 [BI 99179]
residual activity [1]: 89% | residual activity [2]: 77% | residual activity [3]: 91% | residual activity [4]: 97% | residual activity [5]: 87% | residual activity [6]: 90% | residual activity [7]: 100% | residual activity [8]: 78% | residual activity [9]: 79% | residual activity [10]: 100% | residual activity [11]: 100% | residual activity [12]: 100% | residual activity [13]: 96% | residual activity [14]: 90% | residual activity [15]: 95% | residual activity [16]: 77% | residual activity [17]: 100% | residual activity [18]: 79% | residual activity [19]: 100% | residual activity [20]: 85% | residual activity [21]: 94% | residual activity [22]: 96% | residual activity [23]: 100% | residual activity [24]: 98% | residual activity [25]: 79% | residual activity [26]: 100% | residual activity [27]: 82% | residual activity [28]: 100% | residual activity [29]: 89% | residual activity [30]: 99% | residual activity [31]: 96% | residual activity [32]: 100% | residual activity [33]: 99% | residual activity [34]: 50% | residual activity [35]: 93% | residual activity [36]: 66% | residual activity [37]: 100% | residual activity [38]: 100% | residual activity [39]: 100% | inhibition [40]: 4.55% | inhibition [41]: 8.87% | inhibition [42]: -1.4% | inhibition [43]: -9.45% | inhibition [44]: -5.31% | inhibition [45]: 33.6%

CCC(=O)N[C@@H]1CC[C@H](C(=O)N(C)c2ccc(-c3nc4ccccc4o3)cc2)C1 [BI 99990]
residual activity [1]: 87% | residual activity [2]: 100% | residual activity [3]: 100% | residual activity [4]: 100% | residual activity [5]: 100% | residual activity [6]: 100% | residual activity [7]: 100% | residual activity [8]: 62% | residual activity [9]: 75% | residual activity [10]: 100% | residual activity [11]: 100% | residual activity [12]: 100% | residual activity [13]: 100% | residual activity [14]: 99% | residual activity [15]: 100% | residual activity [16]: 76% | residual activity [17]: 100% | residual activity [18]: 100% | residual activity [19]: 100% | residual activity [20]: 100% | residual activity [21]: 100% | residual activity [22]: 100% | residual activity [23]: 100% | residual activity [24]: 100% | residual activity [25]: 100% | residual activity [26]: 100% | residual activity [27]: 83% | residual activity [28]: 100% | residual activity [29]: 98% | residual activity [30]: 100% | residual activity [31]: 100% | residual activity [32]: 100% | residual activity [33]: 77% | residual activity [34]: 72% | residual activity [35]: 100% | residual activity [36]: 100% | residual activity [37]: 95% | residual activity [38]: 77% | residual activity [39]: 99% | inhibition [40]: 19.1% | inhibition [41]: 5.92% | inhibition [42]: -9.11% | inhibition [43]: 4.47% | inhibition [44]: -2.55% | inhibition [45]: 62.9%
